Here are results for two compounds from patent US20080300554A1, “LUBRICANT FOR MEDICAL DEVICES” (APPLIED MEDICAL RESOURCES CORPORATION, priority 2007, published 2008).

This data set can be described thus: Lubricity durability after incubation in PBS at 70° C. Type of data set: physicochemical. To be noted: PBS at 70° C. for 20 hours. The method, then: Lacking a direct assay for PEI, an indirect measure of cross-linking effectiveness was selected. This method involved measuring the stability of the cross-linked coating when incubated in PBS at 70° C. for 20 hours. […] It was assumed that this durability was only possible if cross-linking had immobilized the PEI into a cross-linked matrix. PVP which cannot participate in this cross-linking was free to diffuse through the matrix to maintain lubricity. This assumption was further validated when the covalently cross-linked coating tested as non toxic.
Primary amines react readily with epoxides to form a secondary amine alcohol. Therefore, a multifunctional epoxide has the capability of cross-linking PEI into an immobile matrix EGDE (Sigma Chemical, ethylene glycol diglycidyl ether, E27203 50% technical grade) is a diepoxide with this capability. EGDE is readily soluble in water and isopropanol and can be applied to a coated sheath by a simple dip into an EGDE solution. Effectiveness of EGDE as a cross-linker of PEI was evaluated at 0.1% and 0.5% in aqueous and isopropanol solutions. Evidence of cross-linking was determined by the durability of lubricity after incubation in phosphate buffered saline (PBS) for 20+ hours at 70° C.
This test consisted of incubation of 6 inch segments of the coated sheaths in phosphate buffered saline (PBS) in 18×150 mm test tubes at 70° C. for 20-24 hours. […]

With `O=CCCCC=O` [Glutaraldehyde], the “Lubricity after incubation in PBS (lubricity durability)” value is “showed lubricity durability”.

Regarding polyethyleneglycol diglycidyl ether, the “Lubricity after incubation in PBS (lubricity durability)” value is given as “showed lubricity durability”.
